Some test systems named below: Staphylococcus aureus; Bacillus subtilis 168; Escherichia coli B; Pseudomonas aeruginosa; Staphylococcus aureus 1; Escherichia coli AB94012.
Assay in all cases: ≥ marks a high value that may be exact or a test limit, other limits are often not marked, values filed in µg/mL are converted to µM
Experiment [1] has as its system Escherichia coli ATCC 25922.
Experiment [2] deals with Enterococcus faecalis ATCC 29212.
Experiment [3] concerns Streptococcus iniae 00-1425.
The subject of experiment [4] is Lactococcus garvieae 00-1422.
Experiment [5] concerns Staphylococcus aureus ATCC 29213.
Experiment [6] relates to Aeromonas salmonicida NCTC 7812.
For experiment [7], the system named is Shigella flexneri ATCC 12022.
The subject of experiment [8] is Vibrio anguillarum ATCC 19264.
In experiment [9] the test system is Staphylococcus aureus DSM 2569.
The test system of experiment [10] is Listeria fleischmannii DSM 24998.
The subject of experiment [11] is Listeria monocytogenes DSM 20600.
For experiment [12], the system named is Micrococcus luteus DSM 20030.
Experiment [13] concerns Micrococcus luteus CCM 144.
In experiment [14] the test system is Pseudomonas aeruginosa ATCC 27853.
Experiment [15] has as its system Staphylococcus aureus ATCC 43300.
The subject of experiment [16] is Candida albicans F7-39/IDE99.
Experiment [17] concerns Staphylococcus epidermidis.
Experiment [18] deals with Streptococcus sanguinis ATCC 10556.
Experiment [19] relates to Streptococcus sobrinus ATCC 6715.
Experiment [20] concerns Streptococcus mutans UA159.
For experiment [21], the system named is Pseudomonas aeruginosa 0108.
Experiment [22] deals with Pseudomonas aeruginosa CGMCC 1.860.
Experiment [23] relates to Staphylococcus epidermidis ATCC 12228.
Experiment [24] concerns Staphylococcus aureus ATCC 29737.
Experiment [25] has as its system Candida albicans ATCC 10231.
Experiment [26] has as its system Candida albicans ATCC 90028.
Experiment [27] has as its system Staphylococcus aureus USA 100.
In experiment [28] the test system is Staphylococcus aureus USA 300.
For experiment [29], the system named is Candida albicans ATCC 18804.
Experiment [30] relates to Staphylococcus aureus ATCC 25923.
Experiment [31] deals with Staphylococcus aureus AB94004.
The test system of experiment [32] is Pseudomonas aeruginosa ATCC 9027.
In experiment [33] the test system is Staphylococcus aureus P1374.
Experiment [34] deals with Pseudomonas aeruginosa AB93066.
Experiment [35] deals with Staphylococcus aureus P1381.
The test system of experiment [36] is Staphylococcus aureus ATCC 6538.

The term MIC denotes the smallest concentration in the dilution series that meets the test's criterion for growth inhibition. Lower therefore signals inhibition by little substance.

Values after ≈ are worked out from the molar mass of the structure shown. Bounds are passed on as bounds.

Turning to `CC[C@H](C)[C@H](NC(=O)CNC(=O)[C@H](CCCN=C(N)N)NC(=O)[C@H](Cc1ccccc1)NC(=O)[C@@H](NC(=O)[C@H](Cc1cnc[nH]1)NC(=O)[C@H](Cc1cnc[nH]1)NC(=O)[C@H](Cc1ccccc1)NC(=O)[C@@H](N)Cc1ccccc1)[C@@H](C)CC)C(=O)N[C@H](C(=O)N[C@@H](Cc1cnc[nH]1)C(=O)N[C@H](C(=O)NCC(=O)N[C@@H](CCCCN)C(=O)N[C@H](C(=O)N[C@H](C(=O)N[C@@H](Cc1cnc[nH]1)C(=O)N[C@@H](CCCCN)C(=O)N[C@@H](CC(C)C)C(=O)N[C@H](C(=O)N[C@H](C(=O)NCC(=O)O)[C@@H](C)O)C(C)C)[C@@H](C)CC)[C@@H](C)O)C(C)C)C(C)C` [FFHHIFRGIVHVGKTIHKLVTG], the MIC in experiment [1] was 4.91 µM (≈ 12.5 µg/mL); in experiment [2], 1.23 µM (≈ 3.13 µg/mL); in experiment [3] it was 2.46 µM (≈ 6.26 µg/mL); in [4], 0.61 µM (≈ 1.55 µg/mL); in experiment [5], 2.46 µM (≈ 6.26 µg/mL); in [6] it was at least 78.6 µM. Moreover, the MIC was found to be 2.46 µM (≈ 6.26 µg/mL) in [7] and 4.91 µM (≈ 12.5 µg/mL) in experiment [8].
Regarding `CC[C@H](C)[C@H](NC(=O)CNC(=O)[C@H](CC(N)=O)NC(=O)[C@H](Cc1c[nH]c2ccccc12)NC(=O)[C@@H](NC(=O)[C@@H](NC(=O)[C@H](CO)NC(=O)[C@H](CC(C)C)NC(=O)[C@@H](N)Cc1ccccc1)[C@@H](C)O)[C@@H](C)CC)C(=O)N[C@@H](CCCCN)C(=O)N[C@@H](CO)C(=O)N[C@@H](CC(C)C)C(=O)N[C@@H](Cc1ccccc1)C(N)=O` [FLSTIWNGIKSLF], the MIC was determined as 8 µM (≈ 12.2 µg/mL) in experiment [9], 15 µM (≈ 22.9 µg/mL) in experiment [10], 15 µM (≈ 22.9 µg/mL) in experiment [11] and 4 µM (≈ 6.1 µg/mL) in experiment [12].
`CC[C@H](C)[C@H](NC(=O)CN)C(=O)N[C@@H](CC(C)C)C(=O)N[C@@H](CO)C(=O)N[C@@H](CO)C(=O)N[C@@H](CC(C)C)C(=O)N[C@@H](CC(C)C)C(=O)N[C@@H](CCCCN)C(=O)N[C@@H](CCCCN)C(=O)N[C@@H](CC(C)C)C(=O)N[C@@H](CCCCN)C(=O)N[C@@H](CCCCN)C(=O)N[C@H](C(=O)N[C@H](C(=O)N[C@@H](C)C(=O)N[C@@H](CCCCN)C(N)=O)[C@@H](C)CC)[C@@H](C)CC` [GILSSLLKKLKKIIAK]: the MIC was 5 µM (≈ 8.76 µg/mL) in the experiment on Staphylococcus aureus; 3 µM (≈ 5.26 µg/mL) in [13]; 5 µM (≈ 8.76 µg/mL) in experiment [14]; 16 µM (≈ 28 µg/mL) in experiment [15]; 10 µM (≈ 17.5 µg/mL) in [16]; 7 µM (≈ 12.3 µg/mL) in the experiment on Bacillus subtilis 168. Besides, the minimal inhibitory concentration (MIC) in experiment [17] was determined as 1.8 µM (≈ 3.15 µg/mL); against Escherichia coli B, 8 µM (≈ 14 µg/mL); with Pseudomonas aeruginosa, 7.5 µM (≈ 13.1 µg/mL); in the experiment on Staphylococcus aureus 1, 3.8 µM (≈ 6.66 µg/mL).
As for `CC(C)[C@H](NC(=O)[C@H](CCCCN)NC(=O)[C@H](CCCCN)NC(=O)[C@H](C)NC(=O)[C@H](CCCCN)NC(=O)[C@H](CCCCN)NC(=O)[C@H](Cc1ccccc1)NC(=O)[C@H](Cc1ccccc1)NC(=O)[C@H](CCCCN)NC(=O)[C@H](CCCCN)NC(=O)[C@H](Cc1c[nH]c2ccccc12)NC(=O)CN)C(=O)NCC(=O)N[C@@H](CCCCN)C(=O)O` [GWKKFFKKAKKVGK], the minimal inhibitory concentration (MIC) in [18], in experiment [19] and in [20] was at least 305 µM throughout.
Regarding `CC[C@H](C)[C@H](N)C(=O)N[C@@H](CCCCN)C(=O)N[C@@H](CCCCN)C(=O)N[C@@H](Cc1c[nH]c2ccccc12)C(=O)N[C@@H](CC(C)C)C(=O)N[C@@H](CO)C(=O)N[C@@H](CCCCN)C(=O)N[C@H](C(=O)N[C@@H](CCCCN)C(=O)N[C@@H](CCCCN)C(=O)N[C@@H](CC(C)C)C(=O)N[C@@H](CC(C)C)C(=O)N[C@@H](CCCCN)C(N)=O)[C@@H](C)CC` [IKKWLSKIKKLLK], the MIC in experiment [21] amounted to 6.25 µM (≈ 10.2 µg/mL); in experiment [22], 3.13 µM (≈ 5.09 µg/mL).
As to `CC[C@H](C)[C@H](N)C(=O)N[C@@H](CCCN=C(N)N)C(=O)N[C@H](C(=O)N[C@@H](CCCCN)C(=O)N[C@H](C(=O)N[C@@H](CCCN=C(N)N)C(=O)N[C@H](C(=O)N[C@@H](CCCCN)C(N)=O)[C@@H](C)CC)[C@@H](C)CC)[C@@H](C)CC` [IRIKIRIK], the MIC in experiment [1] is 15 µM (≈ 15.6 µg/mL); in experiment [23] it was 3.75 µM (≈ 3.9 µg/mL); in experiment [24], at least 60.1 µM; in experiment [25], 3.75 µM (≈ 3.9 µg/mL); in experiment [26] it was 1.56 µM (≈ 1.62 µg/mL); in experiment [27], 12.5 µM (≈ 13 µg/mL). In experiment [28], this molecule showed a minimum inhibitory concentration (MIC) of 12.5 µM (≈ 13 µg/mL).
As to `CC(C)C[C@H](NC(=O)[C@H](Cc1cnc[nH]1)NC(=O)[C@H](Cc1ccc(O)cc1)NC(=O)[C@H](CCCN=C(N)N)NC(=O)[C@H](Cc1ccc(O)cc1)NC(=O)[C@H](CCCCN)NC(=O)[C@@H](N)CCCCN)C(=O)N[C@@H](CCCCN)C(=O)N1CCC[C@H]1C(=O)N[C@@H](Cc1ccccc1)C(=O)N[C@@H](CO)C(=O)N[C@@H](CCCCN)C(=O)N[C@@H](CCCCN)C(N)=O` [KKYRYHLKPFSKK], the values for the minimal inhibitory concentration (MIC) in experiment [1], in experiment [29] and in [30] were 128 µM (≈ 220 µg/mL), at least 128 µM and above 128 µM, respectively.
As for `CC[C@H](C)[C@H](NC(=O)[C@H](CO)NC(=O)[C@H](CCCCN)NC(=O)[C@@H](NC(=O)CNC(=O)[C@H](CCCCN)NC(=O)[C@H](Cc1c[nH]c2ccccc12)NC(=O)[C@H](CC(C)C)NC(=O)[C@H](CCCCN)NC(=O)CNC(=O)[C@H](CC(C)C)NC(=O)[C@@H](NC(=O)[C@@H](N)CC(C)C)[C@@H](C)CC)C(C)C)C(=O)N[C@@H](Cc1ccccc1)C(N)=O` [LILGKLWKGVKSIF], the minimal inhibitory concentration (MIC) is 62.4 µM (≈ 99.9 µg/mL) in [1]; 7.8 µM (≈ 12.5 µg/mL) in experiment [31]; 15.6 µM (≈ 25 µg/mL) in experiment [32]; 3.9 µM (≈ 6.25 µg/mL) in experiment [33]; at least 62.4 µM in experiment [34]; 7.8 µM (≈ 12.5 µg/mL) in experiment [30]. In addition, the minimum inhibitory concentration (MIC) in the experiment with Escherichia coli AB94012 was determined as 31.2 µM (≈ 50 µg/mL); in [35] it was 15.6 µM (≈ 25 µg/mL); in experiment [36], 7.8 µM (≈ 12.5 µg/mL).

The record behind these values is DBAASP.
